Measured values as given in patent US20230140216A1, “COMBINATION THERAPY FOR TREATING MPS1” (GAIN THERAPEUTICS SA, priority 2020, published 2023).

Assays:
[1] = molecular target: T1, Recombinant human α-L-iduronidase protein (Homo sapiens, UniProt P35475); assay: Differential scanning fluorimetry (DSF) thermal stabilization; assay type: binding
T1 construct: purchased R&D
T1 sequence (P35475 28-653): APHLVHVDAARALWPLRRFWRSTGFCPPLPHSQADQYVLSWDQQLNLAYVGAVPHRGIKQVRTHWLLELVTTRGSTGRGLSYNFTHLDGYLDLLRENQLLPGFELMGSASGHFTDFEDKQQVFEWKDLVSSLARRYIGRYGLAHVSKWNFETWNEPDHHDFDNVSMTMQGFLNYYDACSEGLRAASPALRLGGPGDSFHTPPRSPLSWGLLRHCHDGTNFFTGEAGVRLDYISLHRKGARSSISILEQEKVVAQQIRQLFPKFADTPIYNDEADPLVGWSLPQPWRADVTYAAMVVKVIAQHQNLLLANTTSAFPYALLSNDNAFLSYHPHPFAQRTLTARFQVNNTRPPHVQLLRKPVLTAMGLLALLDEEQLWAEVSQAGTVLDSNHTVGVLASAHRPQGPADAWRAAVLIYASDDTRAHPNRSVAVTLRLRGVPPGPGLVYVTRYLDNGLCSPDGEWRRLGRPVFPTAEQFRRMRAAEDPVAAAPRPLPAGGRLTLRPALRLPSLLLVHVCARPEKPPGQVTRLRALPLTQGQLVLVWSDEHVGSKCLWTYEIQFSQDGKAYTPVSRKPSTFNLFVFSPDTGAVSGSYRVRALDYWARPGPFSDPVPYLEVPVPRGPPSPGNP
In short: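 Purified recombinant human α-L-iduronidase (final 0.75 µM) in 100 mM Hepes, 20 mM MgCl2, pH 7 with SYPRO Orange was heated with compounds (final 1% DMSO). Thermal denaturation was followed by probe fluorescence during a temperature ramp, and stabilization expressed as ΔTm, binned into four categories (A–D).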

[2] = molecular target: T2, Aldurazyme (laronidase) IDUA activity in bone marrow (Homo sapiens, UniProt P35475); assay: IDUA assay in bone marrow after i.v. Aldurazyme with or without compound; assay type: in vivo, C57BL/6 male mice; conditions: mice, compound i.v. + Aldurazyme 1.2 mg/kg i.v.
T2 construct: purchased Aldurazyme; host or cells: administered i.v. to C57BL/6 male mice
T2 sequence (P35475 26-653 limits assumed): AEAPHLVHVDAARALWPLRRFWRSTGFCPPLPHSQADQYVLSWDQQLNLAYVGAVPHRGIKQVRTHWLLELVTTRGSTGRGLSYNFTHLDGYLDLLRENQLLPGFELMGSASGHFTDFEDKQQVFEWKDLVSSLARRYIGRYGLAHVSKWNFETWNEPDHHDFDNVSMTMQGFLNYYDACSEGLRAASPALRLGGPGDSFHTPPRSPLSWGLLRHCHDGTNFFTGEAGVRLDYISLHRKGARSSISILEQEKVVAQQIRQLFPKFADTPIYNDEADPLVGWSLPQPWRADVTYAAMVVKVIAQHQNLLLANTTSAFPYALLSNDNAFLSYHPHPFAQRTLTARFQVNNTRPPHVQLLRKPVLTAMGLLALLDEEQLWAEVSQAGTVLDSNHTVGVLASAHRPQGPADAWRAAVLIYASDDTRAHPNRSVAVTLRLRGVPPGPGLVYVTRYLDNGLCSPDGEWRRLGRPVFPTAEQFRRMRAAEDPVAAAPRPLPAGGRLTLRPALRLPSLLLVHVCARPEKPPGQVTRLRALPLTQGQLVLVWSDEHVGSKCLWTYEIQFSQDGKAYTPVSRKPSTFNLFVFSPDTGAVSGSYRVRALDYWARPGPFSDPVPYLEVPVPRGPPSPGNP
Protocol: Evaluation of IDUA activity in mouse bone joint cartilage samples obtained from BIO-PCY-19-025 study, where C57BL/6 male mice were administered with 1.2 mg/kg Aldurazyme (i.v. bolus administration) in the presence and absence of Compound A.
Groups Details: • G1: Vehicle 2 +Aldurazyme (1.2 mg/kg,i.v.,) QD×1(n=6) [vehicle 2:NMP (5%) + Solutol HS-15 (5%) + Normal saline (45%) + PEG-400 (45%)]; • G2: Compound A (5 mg/kg, i.v.) + Aldurazyme (1.2 mg/kg, i.v.) QD x 1 (n=6); • G3: Compound A (10 mg/kg, i.v.) + Aldurazyme (1.2 mg/kg, i.v.) QD x 1 (n=6); • G4: Compound A (20 mg/kg, i.v.) + Aldurazyme (1.2 mg/kg, i.v.) QD x 1 (n=6); and • G5: Naïve Control (n=6).
Bone marrow samples from mice were collected at indicated time points. After repeated freeze thaw cycles for protein extraction, bone marrow samples were diluted in formate buffer (0.4 M, pH 3.5). Total protein was estimated using Bradford reagent. 25 µl of tissue homogenate and plasma samples were added to 25 µl of 0.18 mM of 4 MUI substrate and incubated at 37° C. for 30 min. […] Plate was read at excitation 355 nm and emission 460 nm. […]
IDUA activity was assessed from 4-MU standard curve. […] Final IDUA enzyme activity was expressed as nmols/mg of protein/hr. Data was analyzed using GraphPad prism software with one way ANOVA followed by Dunnett’s comparison test. […]

CCN(CC(=O)Nc1c(Cl)cccc1Cl)Cc1nc2ccsc2c(=O)[nH]1 [Compound A]
stabilization of recombinant human IDUA (thermal shift) ([1]; DSF dose response, maximum shift): up to 4 °C | Kd ([1]; thermal shift dose response curve): 22 µM | IDUA enzymatic activity in bone marrow [2]: increases IDUA enzymatic activity in a panel of tissues
